Measurements taken from CN113004196A, “N-(苯甲氧基)-2-氯烟酰胺类化合物及其制备方法和应用” (Zhejiang University of Technology ZJUT, priority 2021, dated 2021).

Key:
[1] = system: lettuce seeds [生菜(Lettuce)种子]; experiment: Herbicidal activity test, seed germination inhibition in 24-well plate, lettuce; type: in vivo; conditions: 1 mM
[2] = system: bentgrass (Agrostis) seeds [剪股颖(Agrostis)的种子]; experiment: Herbicidal activity test, seed germination inhibition in 24-well plate, bentgrass; type: in vivo

| Compound | inhibition of lettuce seeds [1] | inhibition of germination of Agrostis seeds ([2]; 33 μM) | further results |
| --- | --- | --- | --- |
| O=C(NOCc1ccc(Cl)cc1Cl)c1cccnc1Cl [I-2] | 一定抑制作用 | – | – |
| O=C(NOCc1ccc(Br)cc1)c1cccnc1Cl [I-5] | 一定抑制作用 | – | – |
| O=C(NOCc1ccccc1Cl)c1cccnc1Cl [I-14] | – | – | inhibition of germination of Agrostis seeds ([2]; 333 μM): 完全抑制 |
| O=C(NOCc1cnc(Cl)s1)c1cccnc1Cl [I-1] | 一定抑制作用 | 较好的抑制 | – |
| CC(C)(C)c1ccc(CONC(=O)c2cccnc2Cl)cc1 [I-8] | – | 较好的抑制 | inhibition of germination of Agrostis seeds ([2]; 10 μM): 较好的抑制 |
| O=C(NOCc1ccccc1Br)c1cccnc1Cl [I-10] | – | 较好的抑制 | – |
